The subject of data set [1] is WNV. The settings on record: WNV in cells; read-out: EC50, inhibitory effect on the virus in cells; cited from earlier work.
Data set [2] deals with WNV NS2B-NS3 protease. The settings on record: cited from earlier work.
Data set [3] addresses JEV NS3 helicase (ATPase activity) (Japanese encephalitis virus, UniProt P27395). Kind of data set: Effect on the ATPase activity of NS3 helicase (Kinase-Glo Plus luminescence). The data set is classed as biochemical. The settings on record: 200 μM compound, 30 min. How it is done:
The effect of each compound on ATPase activity was tested using a nonradioactive method as previously described. […] The reaction mixture comprised 3 μM of recombinant NS3 helicase and 100 μM ATP in ATPase reaction buffer (20 mM Tris-HCl pH 8.0, 50 mM NaCl, 10 mM MgCl2). Three reactions were conducted for each test. After incubation at 37 °C for 30 min, an equal volume of Kinase-Glo Plus reagent (Promega) was added to each well to quantitate the remaining ATP. The luminescence value of each well was tested by an Infinite 200 PRO multimode reader.
(Kinase-Glo measures the ATP left after a reaction by luminescence.)

In data set [4] the test system is JEV. The data set can be described thus: Determination of EC50 (CPE inhibition, Celltiter-Glo cell viability of JEV-infected BHK-21 cells). The settings on record: Japanese encephalitis virus, BHK-21, 120 h, read-out: 50% effective concentration (EC50). In general terms: Cellular ATP, detected with luciferase, serves as a proxy for viable cell number.
Data set [5] in a line: Compound cytotoxicity (cell viability). The settings on record: hamster.
For data set [6], the target named is JEV NS3 helicase (unwinding activity) (Japanese encephalitis virus, UniProt P27395). The data set can be described thus: NS3 helicase unwinding inhibition, fluorescence resonance energy transfer (FRET) assay. The settings on record: for highest inhibitory level on NS3 helicase unwinding activity: concentration-dependent inhibition, levels reaching as high as; for inhibition of NS3 unwinding activity in helicase inhibitor screening: screening of 41 selected compounds, FRET assay.

Data set [7] relates to JEV. The data set can be described thus: Plaque reduction assay in BHK-21 cells. The settings on record: 48 h, untreated control 3.03 × 10^6 PFU/mL. Background: Plaques are areas of infected cells; plaque reduction assays count them against a control.
Data set [8] deals with JEV. Kind of data set: Antiviral effect by Western blot of JEV envelope (E) protein in BHK-21 cells. The format is cell-based, Japanese encephalitis virus. The settings on record: 48 h, normalized to GAPDH; for reduction of expression of E protein: 20 μM, relative to non-compound treated group.
The test system of data set [9] is JEV. The data set can be described thus: Antiviral effect by indirect immunofluorescence assay (IFA) of NS5 in BHK-21 cells. The settings on record: 48 h, JEV-infected control 84.03%.

A word on the Ki: it is the equilibrium dissociation constant of an inhibitor or competing ligand from its target. Broadly, the CC50 is the concentration giving 50% cytotoxicity. A high value points to better tolerance by the cells. For orientation: IC50 means the concentration needed to halve the response being measured. Lower therefore signals greater potency. The term viability denotes a per cent measure of how many cells are alive, often set against a control. Lower therefore signals a greater loss of cells.

Some results are limits rather than exact numbers.

Sequence of JEV NS3 helicase (unwinding activity) (P27395 1684-2123): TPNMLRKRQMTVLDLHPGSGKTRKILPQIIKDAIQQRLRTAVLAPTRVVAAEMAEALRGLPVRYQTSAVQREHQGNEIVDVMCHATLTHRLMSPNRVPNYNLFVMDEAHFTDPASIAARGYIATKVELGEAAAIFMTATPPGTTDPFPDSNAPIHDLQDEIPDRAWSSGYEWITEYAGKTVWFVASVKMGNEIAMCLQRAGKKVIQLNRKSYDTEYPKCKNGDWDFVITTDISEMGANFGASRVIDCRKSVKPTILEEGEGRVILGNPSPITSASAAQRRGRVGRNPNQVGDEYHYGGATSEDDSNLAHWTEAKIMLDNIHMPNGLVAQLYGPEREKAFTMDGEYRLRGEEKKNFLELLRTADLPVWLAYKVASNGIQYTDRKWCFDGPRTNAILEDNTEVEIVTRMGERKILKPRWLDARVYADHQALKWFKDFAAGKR
Sequence of JEV NS3 helicase (ATPase activity) (P27395 1684-2123): as above

As for phenacetyl-KKR-Aldehyde, the EC50 in [1] is 1.6 µM. Besides, the inhibitory constant (Ki) in data set [2] was 0.009 µM.
For `CS(=O)(=O)c1ccc2nc(NC(=O)c3ccc(Cn4cc([N+](=O)[O-])cn4)cc3)sc2c1` [compound 1], the “inhibition of ATPase activity of NS3 helicase” value in data set [3] is “do not inhibit the ATPase activity”. Further, the EC50 in data set [4] was determined as 25.7 µM. Further, the midpoint of cytotoxicity in [5], the CC50 at 120 h, lay at 168 µM. In addition, the IC50 in data set [6] came to 148 µM. For the same compound, in [6], the “highest inhibitory level on NS3 helicase unwinding activity” value is 79%. Moreover, the “inhibition of NS3 unwinding activity in helicase inhibitor screening” value in data set [6] was “more than 60%”. Moreover, the average virus titer in [7] (20 μM) was 2.7 × 10^4 PFU/mL; in data set [7] (30 μM), 2.1 × 10^4 PFU/mL; in data set [7] (40 μM), 8.9 × 10^3 PFU/mL. Also, in [8], the “reduction of expression of E protein” value came to 70.1%. For the same compound, the “level of JEV-positive cells (NS5 positive)” value is recorded as 58.71% in data set [9] (5 μM) and 13.29% in data set [9] (25 μM).
As to `CCCC(=O)Nc1nc2ccc(NC(=S)NC(=O)c3cccs3)cc2s1` [compound 2], the “inhibition of ATPase activity of NS3 helicase” value in [3] was “do not inhibit the ATPase activity”. Moreover, the EC50 in [4] is 23.5 µM. The compound also had a viability at 120 h, 200 µM in [5] above 60%. Further, the midpoint of inhibition in [6], the IC50, lay at 150 µM. The “highest inhibitory level on NS3 helicase unwinding activity” value in [6] turned out to be 73%. In addition, in data set [6], the “inhibition of NS3 unwinding activity in helicase inhibitor screening” value is given as “more than 60%”. The average virus titer was 4.65 × 10^4 PFU/mL in data set [7] (10 μM), 3.6 × 10^4 PFU/mL in [7] (20 μM), 2.6 × 10^4 PFU/mL in [7] (30 μM) and 1.8 × 10^4 PFU/mL in data set [7] (40 μM). Moreover, the “inhibition of E protein expression” value in data set [8] (5 μM) came to 86.3%. In addition, in [8], the “reduction of expression of E protein” value is on record as 94.8%. The “level of JEV-positive cells (NS5 positive)” value came out at 50.40% in data set [9] (5 μM) and 10.07% in data set [9] (25 μM).

The record behind these values is article PMC5041104, “Structure-based discovery of two antiviral inhibitors targeting the NS3 helicase of Japanese encephalitis virus” (Scientific Reports, 2016).
